The species entered for data set [1] is Rattus norvegicus. Kind of data set: Unbound clearance in rat. The note with it: in vivo. Format: ADME, organism-based.
In data set [2] the target is Voltage-gated inwardly rectifying potassium channel KCNH2 (Homo sapiens, UniProt Q12809). Kind of data set: Inhibition of human ERG.
Data set [3] in a line: Clearance in rat. In kind it is ADME, organism-based. The note with it: in vivo.
Data set [4] in a line: Lipophilicity, log D of the compound. Format: physicochemical. The conditions noted are these: octanol/water.
Data set [5] deals with T1, Hexokinase-4 (Homo sapiens, UniProt P35557).
T1 sequence (P35557 whole entry): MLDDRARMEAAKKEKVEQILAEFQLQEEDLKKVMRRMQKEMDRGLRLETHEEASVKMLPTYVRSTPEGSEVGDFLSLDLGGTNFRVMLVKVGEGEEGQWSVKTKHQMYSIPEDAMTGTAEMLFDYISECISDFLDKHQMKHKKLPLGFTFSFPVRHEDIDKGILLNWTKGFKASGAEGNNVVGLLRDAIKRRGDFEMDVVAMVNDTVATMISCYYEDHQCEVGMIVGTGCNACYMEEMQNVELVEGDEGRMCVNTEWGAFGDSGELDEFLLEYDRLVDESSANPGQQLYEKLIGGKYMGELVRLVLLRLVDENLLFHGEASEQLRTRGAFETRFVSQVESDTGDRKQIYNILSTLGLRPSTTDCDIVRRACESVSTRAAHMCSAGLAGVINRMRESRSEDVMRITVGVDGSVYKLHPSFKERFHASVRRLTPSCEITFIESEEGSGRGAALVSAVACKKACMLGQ
Kind of data set: Activity at glucokinase (unknown origin).

The record followed here is ChEMBL document CHEMBL3217683, “Matched triplicate design sets in the optimisation of glucokinase activators maximising medicinal chemistry information content” (Medchemcomm, 2013).

Chain of Voltage-gated inwardly rectifying potassium channel KCNH2 (Q12809 whole entry): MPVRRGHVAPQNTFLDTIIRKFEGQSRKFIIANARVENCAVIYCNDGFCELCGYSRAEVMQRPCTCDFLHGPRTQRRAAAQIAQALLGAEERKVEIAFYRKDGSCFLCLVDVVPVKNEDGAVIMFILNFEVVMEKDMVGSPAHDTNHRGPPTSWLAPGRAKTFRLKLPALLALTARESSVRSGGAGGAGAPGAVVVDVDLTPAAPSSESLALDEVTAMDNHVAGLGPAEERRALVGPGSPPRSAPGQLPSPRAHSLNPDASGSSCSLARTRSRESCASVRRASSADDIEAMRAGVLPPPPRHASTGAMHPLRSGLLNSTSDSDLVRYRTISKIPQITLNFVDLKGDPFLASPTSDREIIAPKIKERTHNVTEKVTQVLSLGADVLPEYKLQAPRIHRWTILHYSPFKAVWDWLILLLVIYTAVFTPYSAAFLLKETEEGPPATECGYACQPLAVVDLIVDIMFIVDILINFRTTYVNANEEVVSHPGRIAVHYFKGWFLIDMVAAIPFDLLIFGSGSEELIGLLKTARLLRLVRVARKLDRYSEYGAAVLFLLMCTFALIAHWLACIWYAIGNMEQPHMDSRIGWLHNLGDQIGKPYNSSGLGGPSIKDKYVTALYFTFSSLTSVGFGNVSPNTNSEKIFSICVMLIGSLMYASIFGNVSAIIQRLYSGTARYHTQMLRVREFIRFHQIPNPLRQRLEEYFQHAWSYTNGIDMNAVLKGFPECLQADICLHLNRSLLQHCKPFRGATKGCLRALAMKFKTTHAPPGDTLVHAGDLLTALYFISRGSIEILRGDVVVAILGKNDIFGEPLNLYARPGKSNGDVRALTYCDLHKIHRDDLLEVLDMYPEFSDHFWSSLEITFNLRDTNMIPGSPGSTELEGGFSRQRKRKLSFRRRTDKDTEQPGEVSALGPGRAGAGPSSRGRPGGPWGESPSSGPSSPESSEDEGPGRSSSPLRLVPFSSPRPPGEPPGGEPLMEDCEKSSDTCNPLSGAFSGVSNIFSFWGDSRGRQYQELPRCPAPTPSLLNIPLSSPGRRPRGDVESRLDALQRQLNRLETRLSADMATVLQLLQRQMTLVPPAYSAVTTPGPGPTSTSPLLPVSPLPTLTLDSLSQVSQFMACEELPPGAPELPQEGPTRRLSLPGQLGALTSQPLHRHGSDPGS

For orientation: IC50 means the concentration that inhibits the measured activity by half. Read a high IC50 as weaker potency. One may read the clearance as a measure of how efficiently the substance is removed, as volume per time. Low readings indicate inefficient removal, high ones efficient removal. In general, logD refers to the decadic logarithm of the distribution of all forms, ionised or not, between an organic phase and buffer at a given pH. Higher therefore signals a more lipophilic compound. Turning to `COCC[C@H](Oc1ncnc2c1cnn2-c1ccccc1Cl)C(=O)Nc1ccc(C)cn1`, the CL free in data set [1] turned out to be 500 mL/min/kg. For the same compound, the IC50 in data set [2] is 20000 nM. In data set [3], this compound returned a clearance of 37 mL/min/kg. The compound also came in with a log distribution coefficient (logD) in data set [4] of 3.6.
The term EC50 denotes the midpoint of the concentration-response curve. The low end stands for a more potent agent, the high end for a less potent agent. Consider `Cc1cnc(NC(=O)[C@H](COC(C)C)Oc2ncnc3c2cnn3-c2ccccc2Cl)cn1`, for which the CL free in data set [1] is 130 mL/min/kg. In data set [2], this compound showed an IC50 greater than 100000 nM. The same compound yielded a clearance in data set [3] of 61 mL/min/kg. Besides, in data set [5], the midpoint of the response, the EC50, lay at 316 nM. For the same compound, the log distribution coefficient (logD) in data set [4] was found to be 2.1.
As for `COCC[C@H](Oc1ncnc2c1cnn2-c1ncccc1Cl)C(=O)Nc1ccc(C)cn1`, the CL free in data set [1] came to 280 mL/min/kg. In data set [3], the clearance was found to be 54 mL/min/kg. Besides, in data set [5], it took 158 nM to reach a half-maximal effect (EC50). This compound returned a logD in data set [4] of 2.3.
With `COC[C@H](Oc1ncnc2c1cnn2-c1ccccc1Cl)C(=O)Nc1ccc(C)cn1`, the IC50 in data set [2] was 50100 nM. The compound further showed a clearance in data set [3] of 3.8 mL/min/kg. This compound had an EC50 in data set [5] of 316 nM. The compound further had a logD in data set [4] of 3.4.
For `COC[C@H](Oc1ncnc2c1cnn2-c1ncccc1Cl)C(=O)Nc1ccc(C)cn1` the same measures were greater than 100000 nM, 9.3 mL/min/kg, 1580 nM and 2.3.
For `COC[C@H](Oc1ncnc2c1cnn2-c1ncccc1Cl)C(=O)Nc1cnc(C)cn1` the same measures were greater than 79400 nM, 4 mL/min/kg, 5010 nM and 1.4.
As for `CCOC[C@H](Oc1ncnc2c1cnn2-c1ncccc1Cl)C(=O)Nc1ccc(C)cn1`, the CL free in data set [1] is 340 mL/min/kg. Also, in data set [3], the clearance was found to be 52 mL/min/kg. For the same compound, the EC50 in data set [5] is 251 nM. Also, the logD in data set [4] is 2.6.
As for `CCOC[C@H](Oc1ncnc2c1cnn2-c1ccccc1Cl)C(=O)Nc1cnc(C)cn1`, the CL free in data set [1] was determined as 150 mL/min/kg. In data set [3], this compound gave a clearance of 44 mL/min/kg. Besides, the logD in data set [4] came to 2.8.
In the case of `CCOC[C@H](Oc1ncnc2c1cnn2-c1ncccc1Cl)C(=O)Nc1cnc(C)cn1`, the CL free in data set [1] stood at 320 mL/min/kg. For the same compound, in data set [2], the IC50 is 15800 nM. The clearance in data set [3] was found to be 50 mL/min/kg. Besides, in data set [5], the half-maximal effective concentration (EC50) was 1260 nM. The compound also displayed a log distribution coefficient (logD) in data set [4] of 1.8.
Compound `Cc1ccc(NC(=O)[C@H](COC(C)C)Oc2ncnc3c2cnn3-c2ccccc2Cl)nc1` gave a CL free in data set [1] of 1400 mL/min/kg. The same compound gave an IC50 in data set [2] of 31600 nM. In addition, in data set [3], the clearance came out at 71 mL/min/kg. This compound showed a concentration for a half-maximal effect (EC50) in data set [5] of 126 nM. In addition, the pH-dependent lipophilicity (logD) in data set [4] amounted to 3.9.
Take `Cc1ccc(NC(=O)[C@H](COC(C)C)Oc2ncnc3c2cnn3-c2ncccc2Cl)nc1`: in data set [1], the CL free worked out at 390 mL/min/kg. Also, the half-maximal inhibitory concentration (IC50) in data set [2] was greater than 100000 nM. Also, the clearance in data set [3] stood at 62 mL/min/kg. Further, the logD in data set [4] turned out to be 2.9.
With `Cc1ccc(NC(=O)[C@H](COC2CCC2)Oc2ncnc3c2cnn3-c2ncccc2Cl)nc1`, the CL free in data set [1] stood at 1500 mL/min/kg. The compound further gave a 50% inhibitory concentration (IC50) in data set [2] of 39800 nM. This compound had a clearance in data set [3] of 136 mL/min/kg. This compound also had a concentration for a half-maximal effect (EC50) in data set [5] of 158 nM. Moreover, the log distribution coefficient (logD) in data set [4] was 3.2.
The compound `Cc1cnc(NC(=O)[C@H](COC2CCC2)Oc2ncnc3c2cnn3-c2ccccc2Cl)cn1` returned a CL free in data set [1] of 650 mL/min/kg. Besides, in data set [2], the IC50 is 12600 nM. The clearance in data set [3] turned out to be 42 mL/min/kg. The compound also gave an EC50 in data set [5] of 79.4 nM. This compound also came in with a log distribution coefficient (logD) in data set [4] of 3.6.
For the compound `Cc1cnc(NC(=O)[C@H](COC2CCC2)Oc2ncnc3c2cnn3-c2ncccc2Cl)cn1`, the CL free in data set [1] is 260 mL/min/kg. Also, the clearance in data set [3] was determined as 22 mL/min/kg. This compound had an EC50 in data set [5] of 158 nM. Further, the logD in data set [4] was 2.6.
Turning to `CC(C)OC[C@H](Oc1ncnc2c1cnn2-c1ncccc1Cl)C(=O)Nc1ccc(Cl)cn1`, the IC50 in data set [2] was 63100 nM. Also, a half-maximal effect in data set [5] (EC50) was put at 398 nM. Besides, in data set [4], the log distribution coefficient (logD) was found to be 3.5.
For the compound `CC(C)OC[C@H](Oc1ncnc2c1cnn2-c1ccccc1Cl)C(=O)Nc1ccc(Cl)cn1`, the EC50 in data set [5] is 126 nM.
In data set [2], `CCOC[C@H](Oc1ncnc2c1cnn2-c1ncccc1Cl)C(=O)Nc1ccc(Cl)cn1` had an IC50 of 10000 nM. For the same compound, in data set [5], a half-maximal response (EC50) required 316 nM. For the same compound, the logD in data set [4] was 3.
As to `CC(C)OC[C@H](Oc1ncnc2c1cnn2-c1ncccc1Cl)C(=O)Nc1ccc(F)cn1`, 79400 nM corresponded to half-maximal inhibition in data set [2] (IC50). Besides, the logD in data set [4] was 2.7.
On to `CC(C)OC[C@H](Oc1ncnc2c1cnn2-c1ccccc1Cl)C(=O)Nc1ccc(F)cn1`, for which a half-maximal effect in data set [5] (EC50) was put at 200 nM. This compound had a logD in data set [4] of 3.9.
The compound `CCOC[C@H](Oc1ncnc2c1cnn2-c1ncccc1Cl)C(=O)Nc1ccc(F)cn1` came in with a log distribution coefficient (logD) in data set [4] of 2.4.
Compound `CC(C)OC[C@H](Oc1ncnc2c1cnn2-c1ncccc1Cl)C(=O)Nc1ccccn1` gave a half-maximal inhibitory concentration (IC50) in data set [2] greater than 100000 nM. Further, the EC50 in data set [5] was 501 nM. This compound showed a logD in data set [4] of 2.5.
For `CC(C)OC[C@H](Oc1ncnc2c1cnn2-c1ccccc1Cl)C(=O)Nc1ccccn1` the same measures were 63100 nM, 126 nM and 3.5.
The like results for `CCOC[C@H](Oc1ncnc2c1cnn2-c1ncccc1Cl)C(=O)Nc1ccccn1` were, in that order, greater than 100000 nM, 501 nM and 2.1.
The compound `CC(C)OC[C@H](Oc1ncnc2c1cnn2-c1ncccc1Cl)C(=O)Nc1ccc(C#N)cn1` gave an IC50 in data set [2] of 50100 nM. The same compound gave a 50% effective concentration (EC50) in data set [5] of 631 nM. This compound showed a pH-dependent lipophilicity (logD) in data set [4] of 2.5.
Compound `CC(C)OC[C@H](Oc1ncnc2c1cnn2-c1ccccc1Cl)C(=O)Nc1ccc(C#N)cn1` had a 50% effective concentration (EC50) in data set [5] of 316 nM. Also, the pH-dependent lipophilicity (logD) in data set [4] was 3.5.
In data set [2], `CCOC[C@H](Oc1ncnc2c1cnn2-c1ncccc1Cl)C(=O)Nc1ccc(C#N)cn1` showed a 50% inhibitory concentration (IC50) of 20000 nM. For the same compound, the EC50 in data set [5] is 631 nM. Further, the logD in data set [4] stood at 2.
